Biological target: S1P1 receptors (Homo sapiens, UniProt P21453)
Assay: 35S-GTPyS binding assay
Format: biochemical
Details: 35S-GTPyS binding to membranes, 90 min at room temperature; 10 μM S1P used as 100% maximum efficacy
Description: The effect of the compounds was measured using a 35S-GTPyS binding assay. Briefly, membranes were incubated in a buffer containing 20 mM HEPES pH 7.4, 100 mM NaCl, 10 mM MgCl2, 10 μM GDP, 50 μg/mL saponin and 0.2% fatty acid-free BSA at various concentrations (0.1 nM-10 μM) and 0.1 nM 35S-GTPyS. 10 μM S1P was used as 100% maximum efficacy. The assay was incubated for 90 min at room temperature with gentle mixing, and terminated by filtrating the reaction mixture through GF/C filter plates using the Manifold Filtration System. The filters were immediately washed with sodium phosphate pH 7.4 buffer. After drying the filter plates scintillant liquid were added to each well and 35S-GTPyS binding was measured on a Trilux Scintillation Counter.

Sequence of S1P1 receptors (P21453 whole entry): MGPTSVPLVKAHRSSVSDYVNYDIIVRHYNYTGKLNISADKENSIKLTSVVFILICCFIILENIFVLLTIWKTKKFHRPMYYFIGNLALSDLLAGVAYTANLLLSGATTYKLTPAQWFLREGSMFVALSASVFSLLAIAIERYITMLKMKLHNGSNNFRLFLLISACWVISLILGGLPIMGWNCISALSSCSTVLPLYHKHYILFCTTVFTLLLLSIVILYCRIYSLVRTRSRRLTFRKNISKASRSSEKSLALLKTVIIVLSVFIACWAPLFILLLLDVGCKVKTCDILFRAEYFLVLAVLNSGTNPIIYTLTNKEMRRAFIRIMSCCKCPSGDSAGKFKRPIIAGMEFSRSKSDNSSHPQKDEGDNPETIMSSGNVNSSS

EC50	SMILES
29 nM	CCc1ncc(-c2nc(-c3cc(C)c(CCC(N)=O)c(C)c3)no2)c2c1CC(C)(C)CC2 [Example 6, 3-(4-(5-(1-ethyl-7,7-dimethyl-5,6,7,8-tetrahydroisoquinolin-4-yl)-1,2,4-oxadiazol-3-yl)-2,6-dimethylphenyl)propanamide]
10.8 nM	CCc1ncc(-c2nc(-c3cc(C)c(CCN)c(C)c3)no2)c2c1CC(C)(C)CC2 [Example 7, 2-(4-(5-(1-ethyl-7,7-dimethyl-5,6,7,8-tetrahydroisoquinolin-4-yl)-1,2,4-oxadiazol-3-yl)-2,6-dimethylphenyl)ethanamine]
28.5 nM	Cc1cc(-c2noc(-c3cnc(C4CC4)c4c3CCC(C)(C)C4)n2)cc(C)c1CCC(=O)O [Example 8, 3-(4-(5-(1-cyclopropyl-7,7-dimethyl-5,6,7,8-tetrahydroisoquinolin-4-yl)-1,2,4-oxadiazol-3-yl)-2,6-dimethylphenyl)propanoic acid]
19 nM	Cc1cc(-c2noc(-c3cncc4c3CCC(C)(C)C4)n2)cc(C)c1CC(O)CO (centres unmarked) [Example 22, 3-(4-(5-(7,7-dimethyl-5,6,7,8-tetrahydroisoquinolin-4-yl)-1,2,4-oxadiazol-3-yl)-2,6-dimethylphenyl)propane-1,2-diol]
19.4 nM	Cc1cc(-c2noc(-c3cncc4c3CCC(C)(C)C4)n2)cc(C)c1CCNCC(F)F [Example 24, N-(4-(5-(7,7-dimethyl-5,6,7,8-tetrahydroisoquinolin-4-yl)-1,2,4-oxadiazol-3-yl)-2,6-dimethylphenethyl)-2,2-difluoroethanamine]
36.7 nM	Cc1cc(-c2noc(-c3cncc4c3CCC(C)(C)C4)n2)cc(C)c1CCN1CC(C(=O)O)C1 [Example 25, 1-(4-(5-(7,7-dimethyl-5,6,7,8-tetrahydroisoquinolin-4-yl)-1,2,4-oxadiazol-3-yl)-2,6-dimethylphenethyl)azetidine-3-carboxylic acid]
16.4 nM	CNc1ncc(-c2nc(-c3cc(C)c(OCCN)c(C)c3)no2)c2c1CC(C)(C)CC2 [Example 36, 4-{3-[4-(2-aminoethoxy)-3,5-dimethylphenyl]-1,2,4-oxadiazol-5-yl}-N,7,7-trimethyl-5,6,7,8-tetrahydroisoquinolin-1-amine]
21.7 nM	Cc1cc(-c2noc(-c3cnc(N(C)C)c4c3CCC(C)(C)C4)n2)cc(C)c1CC(O)CO (centres unmarked) [Example 37, 3-(4-{5-[1-(dimethylamino)-7,7-dimethyl-5,6,7,8-tetrahydroisoquinolin-4-yl]-1,2,4-oxadiazol-3-yl}-2,6-dimethylphenyl)propane-1,2-diol]

From patent publication US20110274657A1, “OXADIAZOLE DERIVATIVES AS S1P1 RECEPTOR ANTAGONISTS” (priority 2009, published 2011)
